Reference: PubChem BioAssay AID1645863 (Buhrlage Lab, Dana-Farber Cancer Institute and Novartis …, 2021)
Active and inactive are the calls of the source. No rule for the calls is given here.

Target: Ubiquitin carboxyl-terminal hydrolase 10 (Homo sapiens) (UniProt Q14694)
Assay: ubiquitin-specific protease 10 DUB inhibitors, concentration-effect, biochemical, verification of primary screen actives (AID 1645863);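 also: potency values describe inhibition of USP10 cleavage of a fluorogenic ubiquitin substrate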
Details: USP10 deubiquitinase enzymatic assay

Ubiquitin carboxyl-terminal hydrolase 10 (Homo sapiens), sequence (Q14694 whole entry, looked up): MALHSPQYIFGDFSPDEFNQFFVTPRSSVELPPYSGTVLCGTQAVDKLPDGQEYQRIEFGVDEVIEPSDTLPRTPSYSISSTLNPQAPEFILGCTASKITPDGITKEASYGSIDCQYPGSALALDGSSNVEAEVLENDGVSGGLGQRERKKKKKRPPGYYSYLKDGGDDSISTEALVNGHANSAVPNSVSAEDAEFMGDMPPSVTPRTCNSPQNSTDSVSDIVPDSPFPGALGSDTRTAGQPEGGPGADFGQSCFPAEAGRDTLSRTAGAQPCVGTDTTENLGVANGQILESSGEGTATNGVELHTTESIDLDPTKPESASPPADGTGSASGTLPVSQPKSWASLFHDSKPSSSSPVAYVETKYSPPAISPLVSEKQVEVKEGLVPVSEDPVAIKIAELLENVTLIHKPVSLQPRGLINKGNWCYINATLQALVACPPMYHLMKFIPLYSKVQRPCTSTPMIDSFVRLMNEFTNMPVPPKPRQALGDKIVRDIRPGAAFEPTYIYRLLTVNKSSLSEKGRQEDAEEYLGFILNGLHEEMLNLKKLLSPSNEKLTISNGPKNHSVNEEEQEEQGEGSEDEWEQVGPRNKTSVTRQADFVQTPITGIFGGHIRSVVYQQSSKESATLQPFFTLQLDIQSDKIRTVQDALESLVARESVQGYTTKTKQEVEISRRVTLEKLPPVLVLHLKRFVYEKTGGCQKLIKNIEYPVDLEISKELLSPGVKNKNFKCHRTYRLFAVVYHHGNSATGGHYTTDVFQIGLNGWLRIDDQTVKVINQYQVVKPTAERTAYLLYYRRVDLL

Row | IC50 | Structure (SMILES)
1 | 22.3 µM | Cc1cccc(C)c1NC(=O)Cn1c(=O)n(CCCCC(=O)NCc2ccc3c(c2)OCO3)c(=O)c2ccccc21
2 | 1.14 µM | CCc1nc(SCC(=O)Nc2cc(Cl)ccc2C)c2oc3ccccc3c2n1
3 | 21.8 µM | CCCC(O)CCCCCCCc1cc(O)cc(O)c1C(=O)OC(CCC)CCCCCCCc1cc(O)cc(O)c1 (stereo not drawn)
4 | > 40 µM (inactive) | COc1ccc(-c2noc(CC(=O)Nc3cccc(OC)c3)n2)cc1
5 | 9.85 µM | COc1ccc(-c2nc(SCC(=O)Oc3c(C)cccc3C)n3[nH]c(=O)cc3n2)cc1
6 | 3.43 µM | CCCCCCCCCc1cc(OC(=O)c2c(CCCCCCCCC)cc(O)cc2O[C@@H]2O[C@H](CO)[C@@H](O)[C@H](O)[C@H]2O)cc(O)c1C(=O)O
7 | > 40 µM (inactive) | O=C(Cn1c(COc2ccccc2)nc2ccccc21)Nc1ccc(N2CCOCC2)cc1
8 | 16 µM | CC(OC(=O)c1cc(S(=O)(=O)Nc2ccccc2F)ccc1Cl)C(=O)Nc1ccc([N+](=O)[O-])cc1C(F)(F)F (stereo not drawn)
9 | 14.4 µM | Cc1ccc(-c2cc(C(F)F)n3ncc(C(=O)Nc4ccc(O)cc4)c3n2)cc1
10 | > 40 µM (inactive) | COc1ccc(CCN2COc3c(cc(Cl)c4cccnc34)C2)cc1OC
11 | 1.8 µM | O=c1cc(-c2ccc(O)c(O)c2)oc2cc(O)cc(O)c12
12 | 24.4 µM | CCOc1ccc(NC(=O)Cn2c(=O)n(CCC(=O)NCc3ccco3)c(=O)c3ccccc32)cc1
13 | 11.1 µM | Cc1ccc(NC(=O)Nc2ccc(C)n(CC(=O)Nc3ccc(C)c(C)c3)c2=O)cc1
14 | 24.7 µM | COC(=O)c1ccc2c(=O)n(CCCCCC(=O)NCCc3ccc(S(N)(=O)=O)cc3)c(=O)[nH]c2c1
15 | > 40 µM (inactive) | CC(C)(C)c1ccc(C2CC(=O)C3=C(C2)Nc2ccccc2N(C(=O)CCC(=O)O)C3c2cccc([N+](=O)[O-])c2)cc1 (stereo not drawn)
16 | > 40 µM (inactive) | COc1ccccc1C(=O)Nc1ccc(-c2nc3ccccc3o2)c(O)c1
17 | > 40 µM (inactive) | CCOc1ccc2c(c1)c(=O)c(C(=O)c1ccc(F)cc1)cn2CC(=O)Nc1ccccc1
18 | 22.5 µM | CCOc1ccc2c(c1)c(=O)c(C(=O)c1ccccc1)cn2CC(=O)Nc1ccc2c(c1)OCCO2
19 | > 40 µM (inactive) | COc1ccc(-c2onc(C)c2C)cc1S(=O)(=O)NCc1ccc(F)cc1
20 | 22.7 µM | O=C(Cn1c(=O)n(CC2CCC(C(=O)NCCc3ccccc3)CC2)c(=O)c2ccccc21)NCc1ccco1 (stereo not drawn)
21 | > 40 µM (inactive) | COC(=O)c1cc2c(ccn2-c2ccc(F)cc2)n1CC(=O)NC1CCCCC1
22 | > 40 µM (inactive) | CCc1cccc(CC)c1NC(=O)COC(=O)c1cc2cccc(OC)c2oc1=O
23 | > 40 µM (inactive) | COc1ccccc1Nc1ncc(C(=O)NCc2ccc(F)cc2)c2ccccc12

Row | IC50 | Structure (SMILES)
24 | 6.37 µM | CC(C)=CCc1c2c(c3occ(-c4ccc(O)c(O)c4)c(=O)c3c1O)C=CC(C)(C)O2
25 | 25 µM | CCOc1ccc(-c2nnc(-c3cnc4onc(C5CCCC5)c4c3)o2)cc1
26 | > 40 µM (inactive) | Cc1sc(NC(=O)c2ccc(S(=O)(=O)N(C)Cc3ccccc3)cc2)c(C(N)=O)c1C
27 | 3.94 µM | CCCCCCCc1cc(OC(=O)c2c(CCCCCCC)cc(O)cc2O[C@@H]2O[C@H](CO)[C@@H](O)[C@H](O)[C@H]2O)cc(O)c1C(=O)O
28 | 1.75 µM | O=c1cc(-c2ccc(O)c(O)c2)oc2cc(O[C@@H]3O[C@H](CO)[C@@H](O)[C@H](O)[C@H]3O)cc(O)c12
29 | 14.4 µM | O=S(=O)(Nc1cccc(O)c1)c1ccc2oc3ccc(S(=O)(=O)Nc4cccc(O)c4)cc3c2c1
30 | 39.1 µM | CCOc1ccc(-n2ccnc(SCC(=O)Nc3ccccc3F)c2=O)cc1
31 | > 40 µM (inactive) | CCOc1ccc(Oc2nc(CN3CCCC3)nc3sc(C)c(C)c23)cc1
32 | > 40 µM (inactive) | COc1ccc(C(=O)Nc2ccccc2C(=O)NC(Cc2ccc(O)cc2)C(=O)NNC(=O)c2ccccc2Cl)cc1 (stereo not drawn)
33 | 27.6 µM | O=C(CCCC(=O)N(c1ccc2c(c1)OCCO2)C(C(=O)NC1CCCCC1)c1ccc(F)cc1)Nc1ccccn1 (stereo not drawn)
34 | > 40 µM (inactive) | COc1ccccc1N1CCN(C(=O)c2ccc3c(=O)n(CCc4ccccc4)c(=O)[nH]c3c2)CC1
35 | 14.6 µM | Cc1ccc(Nc2nc(O)c(CC(=O)Nc3ccc(C)cc3C)s2)cc1
36 | 27.6 µM | O=C(CCn1c(=O)c2ccccc2n(Cc2ccc(F)cc2Cl)c1=O)NCc1ccco1
37 | > 40 µM (inactive) | CCN(c1ccc(NC(=O)CSc2nnc(-c3ccccc3)n2-c2ccc(OC)c(OC)c2)cc1)C(C)C
38 | > 40 µM (inactive) | COC(=O)c1ccccc1NC(=O)CSc1nnc(CNc2ccc(F)cc2)n1CC1CCCO1 (stereo not drawn)
39 | > 40 µM (inactive) | O=C(CCCc1nnc2c(=O)n(-c3cccc(F)c3)ccn12)Nc1ccccc1
40 | 2.44 µM | CCCCCCCCCCCC1=C(O)C(=O)C=C(O)C1=O
41 | 15.5 µM | O=C1c2c(O)cccc2C2(Oc3cccc4cccc(c34)O2)C2OC12 (stereo not drawn)
42 | inactive | CO/C=C/C(=O)c1cc2cnc3c(=N)cc(NC(C)=O)c([nH]1)c23
43 | 12.8 µM | Cc1ccccc1NC(=O)Cn1c(=O)n(-c2ccc(CC(=O)NCCc3ccccc3)cc2)c(=O)c2sccc21
44 | > 40 µM (inactive) | Cc1csc(NC(=O)c2c[nH]c3ccc(F)cc3c2=O)n1
45 | > 40 µM (inactive) | COCCCN1CCS(=O)(=O)c2c(Cl)c(F)nc(Oc3ccc(C#N)cc3)c21

The next lines start with the molecule.

Row | Structure (SMILES) | IC50
46 | N#Cc1cn2c(nc1-c1ccc(Cl)cc1)nc1ccccc12 | 19.5 µM
47 | Cc1ccc(NC(=O)Cn2cncc(-c3nc(-c4ccccc4)cs3)c2=O)cc1F | 22.9 µM
48 | Cc1noc(-c2cc(=O)n(CC(=O)Nc3ccccc3Cl)c3ccccc23)n1 | 14.4 µM
49 | O=C(NC1CCCCC1)C(c1ccc(F)cc1)N(C(=O)C1COc2ccccc2O1)c1ccc2c(c1)OCO2 (stereo not drawn) | > 40 µM (inactive)
50 | O=C(CCn1c(=O)c2sccc2n(Cc2ccc([N+](=O)[O-])cc2)c1=O)NCc1ccccc1 | > 40 µM (inactive)
51 | Cc1cc(N2CCOCC2)nc(N2CCN(C(=O)C(C)Oc3ccccc3)CC2)n1 (stereo not drawn) | > 40 µM (inactive)
52 | O=C(Nc1ccccc1)[C@@H]1[C@@H]2C(=O)N(c3ccc([N+](=O)[O-])cc3)C(=O)[C@@H]2[C@H]2c3ccccc3C=CN12 | > 40 µM (inactive)
53 | CC(NC(=O)c1ccccc1)c1nc2ccccc2n1CC(=O)Nc1ccc(OC(F)(F)F)cc1 (stereo not drawn) | 37.9 µM
54 | CC(=O)N1CCc2cc(S(=O)(=O)NC(Cc3ccccc3)C(=O)Nc3cccc(Cl)c3C)ccc21 (stereo not drawn) | 23.8 µM
55 | O=C(Cn1ccc2ccn(Cc3ccccc3)c2c1=O)Nc1ccccc1Cl | > 40 µM (inactive)
56 | COc1ccccc1-c1nc(-c2cn(-c3cccc(Cl)c3)nn2)no1 | 25.6 µM
57 | O=C(O)c1ccccc1C(=O)Nc1ccc(SC(C(=O)Nc2ccccc2Cl)c2ccccc2)cc1 (stereo not drawn) | 16.8 µM
58 | Cc1cc(C)c(C#N)c(N2CCN(CCOc3ccc(Cl)cc3)CC2)n1 | > 40 µM (inactive)
59 | Cc1cc(Cl)ccc1NC(=O)c1cc(-c2cccnc2)n[nH]1 | > 40 µM (inactive)
60 | Cc1sc2ccn(C)c(=O)c2c1C(=O)NC1CCCC1 | 27.5 µM
61 | COC(=O)c1ccc(Nc2cc(C)nc3cc(C(F)(F)F)ccc23)cc1 | 30.5 µM
62 | Cc1cc(Nc2ccc(C(=O)NCc3ccco3)cc2)n2nc(-c3cccnc3)nc2n1 | > 40 µM (inactive)
63 | O=C(Nc1cccc(F)c1)Nc1cccc(-c2nnc(-c3ccccc3)o2)c1 | 18.2 µM
64 | Cc1c(C#N)c2ccccc2n1CC(=O)NCc1ccc2c(c1)OCO2 | > 40 µM (inactive)
65 | O=C(c1cc(Cl)c(Cl)[nH]1)c1cc(Cl)cc(Cl)c1O | 15.2 µM
66 | O=C(NCc1ccc2c(c1)OCO2)c1cc2c(s1)CCC2 | 13.2 µM
67 | N#Cc1cc(C(=O)c2cc(Cl)ccc2O)cn(-c2ccccn2)c1=O | > 40 µM (inactive)
68 | O=C(CSc1nc2cc(C(F)(F)F)ccc2s1)NCC(=O)c1ccccc1 | 18.1 µM
69 | Cc1nc(SCC(=O)NC(C)c2ccccc2)c2oc3ccccc3c2n1 (stereo not drawn) | > 40 µM (inactive)

Row | Structure (SMILES) | IC50
70 | Cc1ccccc1NC(=O)CSC1=NC2(CCCCC2)Nc2ccccc21 | > 40 µM (inactive)
71 | Cc1cccc(NC(=O)CSc2nnc(-c3n[nH]c4c3CCC4)n2N)c1C | > 40 µM (inactive)
72 | Cc1nnc(-c2cc(S(=O)(=O)N3CCN(c4ccc(F)cc4)CC3)c[nH]2)o1 | > 40 µM (inactive)
73 | O=C(COc1ccc(Cl)cc1)Nc1noc(-c2cccs2)n1 | > 40 µM (inactive)
74 | O=C1CC(c2cc3c(cc2Br)OCO3)c2cc3c(cc2N1)OCCO3 (stereo not drawn) | > 40 µM (inactive)
75 | COc1ccccc1CN1CCC(c2cc(=O)[nH]c(-c3cccnc3)n2)CC1 | > 40 µM (inactive)
76 | Cc1ccnc(Nc2nc(-c3ccccc3)c3cc(Cl)ccc3n2)n1 | 14.7 µM
77 | Cc1ccc(-c2nc3c(c(SCC(=O)c4ccccc4)n2)COC(C)(C)C3)cc1 | > 40 µM (inactive)
78 | Cn1c(=O)[nH]c(=O)c2c1nc(N1CCc3ccccc3C1)n2CCSc1nnnn1-c1ccccc1 | > 40 µM (inactive)
79 | Nc1c(-c2ccc(Cl)cc2)cnc2cc(-c3ccc(Cl)c(Cl)c3)nn12 | > 40 µM (inactive)
80 | O=C(OC1CSc2nc3ccccc3n2C1)c1ccc([N+](=O)[O-])o1 (stereo not drawn) | 22.7 µM
81 | Cn1cc(C(=O)Nc2ccccc2)c2[nH]c(=O)n(Cc3ccccc3)c(=O)c21 | > 40 µM (inactive)
82 | O=S1(=O)CCN(Cc2c(F)cccc2F)c2c(F)nc(N3CCOCC3)c(F)c21 | > 40 µM (inactive)
83 | O=C(Nc1ccc(C(F)(F)F)cc1)C1CC(=O)N(c2ccc3c(c2)OCCO3)C1 (stereo not drawn) | > 40 µM (inactive)
84 | Cc1nc(C(=O)NC2(O)C(=O)c3ccccc3C2=O)cs1 | 6.82 µM
85 | CCOc1ncccc1C(=O)Nc1ccnn1Cc1ccccc1 | > 40 µM (inactive)
86 | Cc1nnc2ccc(-c3ccc(NC(=O)c4ccc(Br)o4)cc3)nn12 | > 40 µM (inactive)
87 | Cc1ccc(Cl)cc1NC(=O)c1cc(-c2ccccn2)n[nH]1 | > 40 µM (inactive)
88 | O=C1CSC(c2ccc(F)cc2)c2c(n(C3CCCCCC3)[nH]c2=O)N1 (stereo not drawn) | 32.4 µM
89 | O=C(Nc1ccc(-n2cccc2)cc1)c1cccc([N+](=O)[O-])c1 | > 40 µM (inactive)
90 | O=c1oc2c3c(c(Cl)cc2c2c1CCCC2)OCN(Cc1ccccc1)C3 | > 40 µM (inactive)
91 | O=C(Nc1ccccc1C(=O)NC1CCSC1)c1ccc([N+](=O)[O-])cc1 (stereo not drawn) | > 40 µM (inactive)
92 | O=S1(=O)CCN(Cc2cccnc2)c2c(F)nc(N3CCOCC3)c(F)c21 | > 40 µM (inactive)
93 | N=C1/C(=C/c2cn(Cc3ccc(F)cc3)c3ccccc23)C(=O)N=C2SC(Cc3ccccc3)=NN12 | 17.4 µM
